Laboratory results published in patent publication US20230364019A1, “Multi-targeting cell-derived nanoparticles as a versatile theranostic” (Fondazione Istituto Italiano di Tecnologia, priority 2020, published 2023).

Tested on: U-251 MG cell line
Test: % cell proliferation of U-251 MG cell line after 72 h with non-encapsulated and encapsulated 3PO
Format: cell-based
Conditions: U-251 cells, inhibitor concentration 5 μM
Description: FIG. 5. % Cell proliferation of the U-251 MG cell line, after 72 h, using various concentrations of the non-encapsulated and encapsulated (UHT-CMNPs) model drug 3PO.
The ability of the F-CMNPs to act as drug delivery systems was also studied. […] As a proof of concept, we loaded the glucose inhibitor (2E)-3-(3-Pyridinyl)-1-(4-pyridinyl)-2-propen-1-one (3PO) in the F-CMNPs.

O=C(/C=C/c1cccnc1)c1ccncc1 [3PO, (2E)-3-(3-Pyridinyl)-1-(4-pyridinyl)-2-propen-1-one]
reduction of cells' proliferation: not affecting
